Experiments:
[1] = system: non-small cell lung cancer A549 cells; assay: In vitro cell inhibition assay, CCK-8 method, A549; type: cell-based, human; settings: 48 h incubation
Protocol: (§1) After the cell culture flasks gently shaking, culture fluid was discarded in clean bench. […] Cells were collected and transferred to centrifuge tube. For the non-adherent cells HL-60, CCRF-CEM and MOLT-4, cell flasks were picked up from incubator and then transferred to the centrifuge tubes directly. After cells were collected using centrifuge at 1000 rpm/min for 5 min, the fluid was discarded. Then cells were washed for one time by PBS, discard fluid. Then add some medium, count cells under inverted microscope using blood cell counting plate, according the counting number to making the density of adherent cell was 1×10^5 cells/mL, the non-adherent cell was 2×10^5 cells/mL (the volumes of HL-60, CCRF-CEM, MOLT-4 are smaller than non-adherent cells, these cells added to each well was much more higher). Add 50 μL aliquots to each well of 96-well plates (the density of adherent cells was 5000 cells/well, non-adherent cells was 10000 cells/well). Blank control, Negative control, blank control with compounds and positive control wells were grouped, and three replicate wells were used for each data point in the experiments. Then the cells were cultured in 5% incubator for overnight at 37° C., Then the different concentration compounds were added to each well. After incubation for 48 h, according to the manufacturer's instructions, CCK-8 reagent (10 μl) was added and incubation was continued for a further 2-4 h. The absorbance (A) of each well was read at 450 nm using a plate reader.

leukemia HL-60 cells = assay: In vitro cell inhibition assay, CCK-8 method, HL-60; type: cell-based, human; settings: HL-60 cells, CCK-8 method
Protocol: as §1

| Compound | Proliferation inhibitory effect of the compounds on A549 cells (% of Control) ([1]; CCK-8, 0.01 μM) | Proliferation inhibitory effect of the compounds on A549 cells (% of Control) ([1]; CCK-8, 0.1 μM) | Proliferation inhibitory effect of the compounds on A549 cells (% of Control) ([1]; CCK-8, 1 μM) | Proliferation inhibitory effect of the compounds on A549 cells (% of Control) ([1]; CCK-8, 10 μM) | Proliferation inhibitory effect of the compounds on A549 cells (% of Control) ([1]; CCK-8, 100 μM) | Proliferation inhibitory effect of the compounds on HL-60 cells (% of Control) (leukemia HL-60 cells; concentration 0.01 μM) | Proliferation inhibitory effect of the compounds on HL-60 cells (% of Control) (leukemia HL-60 cells; concentration 0.1 μM) | Proliferation inhibitory effect of the compounds on HL-60 cells (% of Control) (leukemia HL-60 cells; concentration 1 μM) | Proliferation inhibitory effect of the compounds on HL-60 cells (% of Control) (leukemia HL-60 cells; concentration 10 μM) | Proliferation inhibitory effect of the compounds on HL-60 cells (% of Control) (leukemia HL-60 cells; concentration 100 μM) | inhibition at 0.01 µM ([1]; Homo sapiens, A549, CCK-8, 0.01 μM, read-out: Proliferation inhibitory effect of the compounds on A549 cells (% of Control)) | inhibition at 0.1 µM ([1]; Homo sapiens, A549, CCK-8, 0.1 μM, read-out: Proliferation inhibitory effect of the compounds on A549 cells (% of Control)) | inhibition at 1 µM ([1]; Homo sapiens, A549, CCK-8, 1 μM, read-out: Proliferation inhibitory effect of the compounds on A549 cells (% of Control)) | inhibition at 10 µM ([1]; Homo sapiens, A549, CCK-8, 10 μM, read-out: Proliferation inhibitory effect of the compounds on A549 cells (% of Control)) | inhibition at 100 µM ([1]; Homo sapiens, A549, CCK-8, 100 μM, read-out: Proliferation inhibitory effect of the compounds on A549 cells (% of Control)) | inhibition at 0.01 µM (leukemia HL-60 cells; Homo sapiens, concentration 0.01 μM, read-out: Proliferation inhibitory effect of the compounds on HL-60 cells (% of Control)) | inhibition at 0.1 µM (leukemia HL-60 cells; Homo sapiens, concentration 0.1 μM, read-out: Proliferation inhibitory effect of the compounds on HL-60 cells (% of Control)) | inhibition at 1 µM (leukemia HL-60 cells; Homo sapiens, concentration 1 μM, read-out: Proliferation inhibitory effect of the compounds on HL-60 cells (% of Control)) | inhibition at 10 µM (leukemia HL-60 cells; Homo sapiens, concentration 10 μM, read-out: Proliferation inhibitory effect of the compounds on HL-60 cells (% of Control)) | inhibition at 100 µM (leukemia HL-60 cells; Homo sapiens, concentration 100 μM, read-out: Proliferation inhibitory effect of the compounds on HL-60 cells (% of Control)) |
| --- | --- | --- | --- | --- | --- | --- | --- | --- | --- | --- | --- | --- | --- | --- | --- | --- | --- | --- | --- | --- |
| N#Cc1c(Cl)c(Cl)c(Nc2c(Cl)cc(Br)cc2Cl)c(C#N)c1Cl [Compound 6-201] | 14.31 % of Control | 19.63 % of Control | 26.90 % of Control | 60.23 % of Control | 83.86 % of Control | 40.59 % of Control | 48.61 % of Control | 75.70 % of Control | 86.76 % of Control | 98.14 % of Control |  |  |  |  |  |  |  |  |  |  |
| N#Cc1c(Cl)c(Cl)c(Nc2c(Cl)cc(C(F)(F)F)cc2Cl)c(C#N)c1Cl [Compound 6-95] | 39.65 % of Control | 56.27 % of Control | 78.63 % of Control | 97.88 % of Control | 98.69 % of Control | 0.00 % of Control | 43.28 % of Control | 94.76 % of Control | 94.99 % of Control | 96.40 % of Control |  |  |  |  |  |  |  |  |  |  |
| N#Cc1c(Cl)c(Cl)c(Nc2ccc(Cl)c(Cl)c2)c(C#N)c1Cl [Compound 6-43] |  |  |  |  |  | 23.65 % of Control | 31.60 % of Control | 38.45 % of Control | 73.80 % of Control | 78.53 % of Control |  |  |  |  |  |  |  |  |  |  |
| N#Cc1c(Cl)c(Cl)c(Nc2ccc(Br)cc2Cl)c(C#N)c1Cl [Compound 6-45] |  |  |  |  |  | 0.00 % of Control | 27.78 % of Control | 39.89 % of Control | 52.09 % of Control | 80.30 % of Control |  |  |  |  |  |  |  |  |  |  |
| N#Cc1c(Cl)c(Cl)c(Nc2c(Br)cc(Br)cc2Br)c(C#N)c1Cl [Compound 6-112] |  |  |  |  |  |  |  |  |  |  | 46.5% | 47.2% | 76.9% | 89.3% | 99.3% | 48.3% | 59.5% | 91.5% | 97.6% | 96.5% |
| COC(=O)c1cc(Cl)c(Nc2c(Cl)c(Cl)c(C#N)c(Cl)c2C#N)c(Cl)c1 [Compound 6-100] | 43.98 % of Control | 50.53 % of Control | 52.15 % of Control | 57.45 % of Control | 89.94 % of Control | 14.24 % of Control | 26.90 % of Control | 39.47 % of Control | 49.85 % of Control | 97.42 % of Control |  |  |  |  |  |  |  |  |  |  |
| COC(=O)c1ccc(Nc2c(Cl)c(Cl)c(C#N)c(Cl)c2C#N)cc1 [Compound 6-25] | 15.66 % of Control | 18.59 % of Control | 17.11 % of Control | 55.87 % of Control | 81.32 % of Control | 11.52 % of Control | 42.54 % of Control | 84.06 % of Control | 92.02 % of Control | 84.30 % of Control |  |  |  |  |  |  |  |  |  |  |
| N#Cc1c(Cl)c(Cl)c(Nc2ccc(C(F)(F)F)cc2Cl)c(C#N)c1Cl [Compound 6-47] | 42.56 % of Control | 49.86 % of Control | 53.58 % of Control | 55.57 % of Control | 99.91 % of Control | 7.02 % of Control | 34.70 % of Control | 41.47 % of Control | 83.33 % of Control | 98.51 % of Control |  |  |  |  |  |  |  |  |  |  |
| N#Cc1c(Cl)c(Cl)c(Nc2c(Br)cc(OC(F)(F)F)cc2Br)c(C#N)c1Cl [Compound 6-111] | 23.15 % of Control | 29.42 % of Control | 53.14 % of Control | 80.03 % of Control | 99.83 % of Control | 13.70 % of Control | 41.52 % of Control | 79.31 % of Control | 95.16 % of Control | 99.28 % of Control |  |  |  |  |  |  |  |  |  |  |

From US9376376B2, “Substitute diphenylamine compounds use thereof as antitumor agents” (SINOCHEM CORPORATION, priority 2012, dated 2016)
